According to US9169217B2, “Arylalkyl esters of 4-amino-6-(substituted phenyl)-picolinates and 6-amino-2-(substituted phenyl)-pyrimidinecarboxylates and their use as selective herbicides for crops” (Dow AgroSciences LLC, priority 2011, dated 2015):

Columns and labels:
[1] = tested on: Scirpus juncoides ROXB. (Japanese bulrush); assay: In-water applied herbicidal activity in transplanted paddy rice (Example 17); format: in vivo; settings: Schoenoplectiella juncoides, 504 h; rice cropping systems, in-water applied (paddy), 17.5 g ae/ha, 21 DAA; may represent multiple trials; read-out: Visual Injury (%) SCPJU
Experimental: (§1) Weed seeds or nutlets of the desired test plant species were planted in puddled soil (mud) prepared by mixing a non-sterilized mineral soil (28 percent silt, 18 percent clay, and 54 percent sand, with a pH of about 7.3 to 7.8 and an organic matter content of about 1.0 percent) and water at a ratio of 100 kilograms (kg) of soil to 19 liters (L) of water. The prepared mud was dispensed in 250 mL aliquots into 480 mL non-perforated plastic pots with a surface area of 91.6 cm^2 leaving a headspace of 3 cm in each pot. Rice seeds were planted in Sun Gro MetroMix 306 planting mixture, which typically has a pH of 6.0 to 6.8 and an organic matter content of about 30 percent, in plastic plug trays. Seedlings at the second or third leaf stage of growth were transplanted into 650 mL of mud contained in 960 mL non-perforated plastic pots with a surface area of 91.6 cm^2 four days prior to herbicide application. The paddy was created by filling the 3 cm headspace of the pots with water. When required to ensure good germination and healthy plants, a fungicide treatment and/or other chemical or physical treatment was applied. The plants were grown for 4-14 d in a greenhouse with an approximate 14-h photoperiod which was maintained at about 29° C. during the day and 26° C. during the night. Nutrients were added as Osmocote (17:6:10, Nitrogen:Phosphorus:Potassium (N:P:K)+minor nutrients) at 2 grams (g) per cup. Water was added on a regular basis to maintain the paddy flood, and supplemental lighting was provided with overhead metal halide 1000-Watt lamps as necessary. The plants were employed for testing when they reached the second or third true leaf stage.
(§2) Treatments consisted of esters of compounds 1-4, 6-33, 35-39, 41 and 42 and A-G. Compound A is methyl 4-amino-3-chloro-6-(4-chloro-3-ethoxy-2-fluorophenyl)-5-fluoropicolinate; compound B is methyl 4-amino-3-chloro-6-(4-cyclopropylphenyl)-5-fluoropicolinate; compound C is methyl 4-amino-3-chloro-6-(2,4-dichloro-3-methoxyphenyl)picolinate; compound D is methyl 6-amino-2-(4-chloro-2-fluoro-3-methoxyphenyl)-5-vinylpyrimidine-4-carboxylate; compound E is methyl 4-amino-3-chloro-6-(4-chloro-2-fluoro-3-methoxyphenyl)-5-fluoropicolinate; compound F is methyl 6-amino-2-(4-chloro-2-fluoro-3-methoxyphenyl)-5-methoxypyrimidine-4-carboxylate; and compound G is methyl 4-amino-3-chloro-6-(4-chloro-2-fluoro-3-methoxyphenyl)picolinate. Weighed amounts of technical grade compounds were placed in individual 120 mL glass vials and were dissolved in 20 mL of acetone to obtain concentrated stock solutions. […] The concentrated stock solutions obtained were diluted with 20 mL of an aqueous mixture containing 2.5% Agri-dex crop oil concentrate (v/v). The final application solutions contained 1.25% (v/v) Agri-dex crop oil concentrate. Generally, multiple concentrations were tested utilizing the same stock solution. Applications were made by injecting an appropriate amount of the application solution into the aqueous layer of the paddy. Control plants were treated in the same manner with the solvent blank.
(§3) The treated plants and control plants were placed in a greenhouse as described above and water was added as needed to maintain a paddy flood. After 3 weeks the condition of the test plants, compared with that of the untreated plants, was determined visually and scored on a scale of 0 to 100 percent where 0 corresponds to no injury and 100 corresponds to complete kill.
(§4) By applying the well-accepted probit analysis as described by J. Berkson in Journal of the American Statistical […], 48, 565 (1953) and by D. Finney in “Probit Analysis” Cambridge University Press (1952), the data gathered can be used to calculate GR50 and GR80 values, which are defined as growth reduction factors that correspond to the effective dose of herbicide required to kill or control 50 percent or 80 percent, respectively, of a target plant.

[2] = tested on: Echinochloa crus-galli (L.) P.BEAUV. (barnyardgrass); assay: as above; format: in vivo; settings: Echinochloa crus-galli, 504 h, rice cropping systems, in-water applied (paddy), 21 DAA, may represent multiple trials, read-out: Visual Injury (%) ECHCG; for pest or weed control at 17.5 g/ha: 17.5 g ae/ha; for pest or weed control at 35 g/ha: 35 g ae/ha
Experimental: as §1, §2, §3, §4

[3] = tested on: Cyperus difformis L. (small-flower flatsedge); assay: Postemergence foliar-applied herbicidal activity in direct seeded rice (Example 16); format: in vivo; settings: post-emergence, 504 h, rice cropping systems, foliar-applied, 8.75 g ae/ha, 21 DAA, may represent multiple trials, read-out: Visual Injury (%) CYPDI
Text: (§5) Seeds or nutlets of the desired test plant species were planted in a soil matrix prepared by mixing a loam soil (43 percent silt, 19 percent clay, and 38 percent sand, with a pH of about 8.1 and an organic matter content of about 1.5 percent) and river sand in an 80 to 20 ratio. The soil matrix was contained in plastic pots with a surface area of 139.7 cm^2. When required to ensure good germination and healthy plants, a fungicide treatment and/or other chemical or physical treatment was applied. The plants were grown for 10-17 d in a greenhouse with an approximate 14-h photoperiod which was maintained at about 29° C. during the day and 26° C. during the night. Nutrients and water were added on a regular basis and supplemental lighting was provided with overhead metal halide 1000-Watt lamps as necessary. The plants were employed for testing when they reached the second or third true leaf stage.
(§6) Treatments consisted of esters of compounds 1-4, 6-8, 10, 11, 13-16, 20-31, 35, 38, 41 and 42 and A-E. Compound A is methyl 4-amino-3-chloro-6-(4-chloro-3-ethoxy-2-fluorophenyl)-5-fluoropicolinate; compound B is methyl 4-amino-3-chloro-6-(4-cyclopropylphenyl)-5-fluoropicolinate; compound C is methyl 4-amino-3-chloro-6-(2,4-dichloro-3-methoxyphenyl)picolinate; compound D is methyl 6-amino-2-(4-chloro-2-fluoro-3-methoxyphenyl)-5-vinylpyrimidine-4-carboxylate; and compound E is methyl 4-amino-3-chloro-6-(4-chloro-2-fluoro-3-methoxyphenyl)-5-fluoropicolinate. Weighed amounts of technical grade compounds were placed in 25 mL glass vials and dissolved in a volume of 97:3 v/v acetone-DMSO to obtain 12× stock solutions. […] The concentrated stock solutions were added to the spray solutions so that the final acetone and DMSO concentrations were 16.2% and 0.5%, respectively. Spray solutions were diluted to the appropriate final concentrations with the addition of 10 mL of an aqueous mixture of 1.5% (v/v) Agri-dex crop oil concentrate. Generally, multiple concentrations of spray solutions were formulated and tested utilizing the same stock solution. The final spray solutions contained 1.25% (v/v) Agri-dex crop oil concentrate. Compound requirements are based upon a 12 mL application volume at a rate of 187 L/ha. Spray solutions were applied to the plant material with an overhead Mandel track sprayer equipped with 8002E nozzles calibrated to deliver 187 L/ha over an application area of 0.503 square meters (m^2) at a spray height of 18 inches (43 cm) above average plant canopy height. Control plants were sprayed in the same manner with the solvent blank.
as §3, with “watered by sub-irrigation” for “water was added as needed”, “prevent wash-off of the test compounds.” for “maintain a paddy flood.”, “weeks,” for “weeks”
as §4

[4] = tested on: Scirpus juncoides ROXB. (Japanese bulrush); assay: as above; format: in vivo; settings: Schoenoplectiella juncoides, post-emergence, 504 h; rice cropping systems, foliar-applied, 8.75 g ae/ha, 21 DAA; may represent multiple trials; read-out: Visual Injury (%) SCPJU
Text: as §5, §6
as §3, with “watered by sub-irrigation” for “water was added as needed”, “prevent wash-off of the test compounds.” for “maintain a paddy flood.”, “weeks,” for “weeks”
as §4

Row | SMILES | melting point [°C] | pest or weed control at 17.5 g/ha [1] [%] | pest or weed control at 17.5 g/ha [2] [%] | pest or weed control at 8.75 g/ha [3] [%] | pest or weed control at 8.75 g/ha [4] [%] | pest or weed control at 35 g/ha [2] [%]
1 | COc1c(Cl)ccc(-c2nc(C(=O)OCc3ccc(Cl)cc3)c(Cl)c(N)c2F)c1F [Compound 2, 4-chlorobenzyl 4-amino-3-chloro-6-(4-chloro-2-fluoro-3-methoxyphenyl)-5-fluoropicolinate] | 143 | 99 | 97 | 100 | 100 | –
2 | COc1c(Cl)ccc(-c2nc(C(=O)OCc3ccc(C)cc3)c(Cl)c(N)c2F)c1F [Compound 3] | 139 | 99 | 78 | 100 | 99 | –
3 | COc1c(Cl)ccc(-c2nc(C(=O)OCc3ccc(C#N)cc3)c(Cl)c(N)c2F)c1F [Compound 4] | 151 | 95 | 95 | 80 | 80 | –
4 | COc1ccc(COC(=O)c2nc(-c3ccc(Cl)c(OC)c3F)c(F)c(N)c2Cl)cc1 [Compound 5] | 183 to 184 | – | – | – | – | –
5 | COc1c(Cl)ccc(-c2nc(C(=O)OCc3ccc(C(F)(F)F)cc3)c(Cl)c(N)c2F)c1F [Compound 6] | 118 to 119 | 95 | 60 | 100 | 100 | –
6 | COc1c(Cl)ccc(-c2nc(C(=O)OCc3ccccc3C)c(Cl)c(N)c2F)c1F [Compound 8] | 135 | 100 | 100 | 99 | 99 | –
7 | COc1c(Cl)ccc(-c2nc(C(=O)OCc3ccccc3Cl)c(Cl)c(N)c2F)c1F [Compound 9] | 183 to 184 | 100 | 100 | – | – | –
8 | COc1ccccc1COC(=O)c1nc(-c2ccc(Cl)c(OC)c2F)c(F)c(N)c1Cl [Compound 10] | 135 to 136 | 100 | 70 | 100 | 91 | –
9 | COc1c(Cl)ccc(-c2nc(C(=O)OCc3cccc(C)c3)c(Cl)c(N)c2F)c1F [Compound 11] | 150 | 99 | 97 | 99 | 97 | –
10 | COc1c(Cl)ccc(-c2nc(C(=O)OCc3cccc(Cl)c3)c(Cl)c(N)c2F)c1F [Compound 12] | 147 to 148 | 100 | 100 | – | – | –
11 | COc1cccc(COC(=O)c2nc(-c3ccc(Cl)c(OC)c3F)c(F)c(N)c2Cl)c1 [Compound 13] | 164 to 165 | 98 | 98 | 95 | 80 | –
12 | COc1c(Cl)ccc(-c2nc(C(=O)OC(C)c3ccccc3)c(Cl)c(N)c2F)c1F (stereo not shown) [Compound 14] | – | 70 | 10 | 95 | 50 | –
13 | COc1c(Cl)ccc(-c2nc(C(=O)OCCc3ccccc3)c(Cl)c(N)c2F)c1F [Compound 15] | 84 to 85 | 70 | 30 | 100 | 90 | –
14 | COC(=O)c1ccc(COC(=O)c2nc(-c3ccc(Cl)c(OC)c3F)c(F)c(N)c2Cl)cc1 [Compound 16] | 182 | 99 | 90 | 94 | 85 | –
15 | COc1c(Cl)ccc(-c2cc(N)c(Cl)c(C(=O)OCc3ccc(Cl)cc3)n2)c1F [Compound 18] | 100 to 108 | – | – | – | – | 100
16 | COc1c(Cl)ccc(-c2cc(N)c(Cl)c(C(=O)OC(C)c3ccccc3)n2)c1F (stereo not shown) [Compound 19] | 110 to 113 | – | – | – | – | 90
17 | COc1c(Cl)ccc(-c2nc(C(=O)OCc3ccc(OC(F)(F)F)cc3)c(Cl)c(N)c2F)c1F [Compound 20, 4-trifluoromethoxybenzyl 4-amino-3-chloro-6-(4-chloro-2-fluoro-3-methoxyphenyl)-5-fluoropicolinate] | – | 0 | 50 | 100 | 100 | –
18 | COC(=O)c1ccccc1COC(=O)c1nc(-c2ccc(Cl)c(OC)c2F)c(F)c(N)c1Cl [Compound 32] | 161 | 100 | 60 | – | – | –
19 | COc1c(Cl)ccc(-c2cc(N)c(Cl)c(C(=O)OCCc3ccccc3)n2)c1F [Compound 37] | – | – | – | – | – | 98
